Assay results: paper PMC4127532 (Journal of Medicinal Chemistry, 2014)
“Also recorded” adds a separate entry of the source.

Key:
[1] = system: A/Victoria/3/75 (H3N2, M2 WT); test: microbe, parasite or virus in culture; assay type: cell-based, influenza A
[2] = target: A/England/195/2009 (H1N1), M2/S31 (Influenza A virus, UniProt C3W5Z0, N31S); assay type: cell-based
[3] = target: S31N M2 transmembrane domain (residues 22–46) (Influenza A virus, UniProt P0DOF5, S31N); assay type: binding, influenza A (A/Udorn/307/72)

Compound	EC50 ± SE [1]	EC50 ([1]; Influenza A virus, H3N2, MDCK) [nM]	block of inward proton currents (in words) [2]	decrease of tilt angle of the entire TMD helix [3] [°]	helix tilt of S31N M2 TMD with drug [3] [°]
NC12CC3CC(CC(C3)C1)C2 [Compound 1, amantadine]	no detectable activity; also recorded: inactive	3000 ± 500	well blocked	–	–
NC1C2CC3CC(C2)CC1C3 (stereo not shown) [Compound 3]	–	–	well blocked	–	–
CCCC1(N)C2CC3CC(C2)CC1C3 (stereo not shown) [Compound 6, 2-n-Propyltricyclo[3.3.1.1^3,7]decan-2-amine]	–	–	well blocked	3	~33
